Source: patent US10940218B2, “Treatment of meningiomas using phenylbenzothiazole, stilbene, biphenylalkyne, or pyridine derivatives” (MAYO FOUNDATION FOR MEDICAL EDUCATION AND RESEARCH, priority 2012, dated 2021)
Entries after “also recorded” stand apart in the source; their conditions may differ.

What was measured:
meningiomas = assay: PiB PET/CT imaging of meningiomas in patients; type: in vivo, human
Source text: An Alzheimer's imaging database of two hundred forty-one patients was reviewed. […] All patients had been imaged by at least one MRI, as well as by FDG-PET/CT and PET/CT using the compound of formula (V). MRI reports of all patients were reviewed for possible meningiomas and other tumors. […] The diagnostic confidence of the radiologists interpreting the studies varied slightly, depending on factors such as tumor location and previous imaging. […] Tumors smaller than 7 millimeters are generally considered too small to be evaluated by PET or PET/CT. This is an excepted limitation of PET or PET/CT as a modality. […] None of the meningiomas in the series would be classified as atypical or aggressive based on MRI or CT imaging. One presumed extracranial schwannoma was seen, showing mild uptake on FDG-PET/CT, but no uptake on PET/CT using the compound of formula (V).
The radiologic interpretations of MRI, CT and FDG PET/CT scans from a population of 834 people who participated in the population-based Mayo Clinic Study of Aging (MCSA) from March 2006 through September 2011 were reviewed for the presence of tumors or other brain lesions. (See, Kantarci K, Lowe V, Przybelski S A, et al., “Magnetic resonance spectroscopy, {beta}-amyloid load, and cognition in a population-based sample of cognitively normal older adults”, Neurology 2011; 77:951-8; and Roberts R O, Geda Y E, Knopman D S, et al., “The Mayo Clinic Study of Aging: design and sampling, participation, baseline measures and sample characteristics”, Neuroepidemiology 2008; 30:58-69.) Participants were randomly selected for recruitment in the MCSA from a population of older adult residents of Olmsted County, Minn., USA. Those with neurological, psychological or systemic illnesses were not excluded. Individuals with dementia, or those unable to be imaged for medical reasons were excluded. All patients were imaged with C11-PiB PET/CT, F18-FDG PET/CT and non-contrast MRI at least once as part of the study. Any additional patient imaging and clinical history was then reviewed.
Tumors found in any of the subjects were then categorized as possible meningiomas or non-meningiomas based on the reading of the reporting neuroradiologist. Possible meningiomas were further reviewed as a group. A more strict set of criteria were applied to select a subset of the possible meningiomas that were designated “high-likelihood meningiomas” for further analysis and were defined by (1) tumors that were confirmed to be enhancing on diagnostic MRI (obtained separately for clinical purposes) and (2) tumors that had greater than two years of follow-up imaging confirming no growth or slow growth (1-2 mm per year). When the lead diagnosis of the identified tumor was metastasis, the diagnosis was confirmed by biopsy or autopsy. All tumors smaller than 5 mm thick were excluded, given they fall below the generally accepted lower limits of PET/CT resolution.
PET imaging was performed as part of the Mayo Clinic Study of Aging as previously described. (See Kantarci K, Lowe V, Przybelski S A, et al., “Magnetic resonance spectroscopy, {beta}-amyloid load, and cognition in a population-based sample of cognitively normal older adults”, Neurology 2011; 77:951-8.) PiB PET/CT, then FDG PET/CT were performed on the same day. PET/CT imaging was performed on a 690XT or DRX PET/CT tomograph (GE Healthcare). The PET sinograms were reconstructed using a fully-3D OSEM algorithm into a 30 cm field of view; the pixel size was 1.2 mm and the slice thickness was 3.27 mm (DRX) or 1.96 mm (690XT). CT imaging was obtained immediately prior to PET acquisition and used for attenuation correction. Cerebral PiB retention, a marker of amyloid deposition, was measured as previously described. (See Kantarci K, Lowe V, Przybelski S A, et al. “Magnetic resonance spectroscopy, {beta}-amyloid load, and cognition in a population-based sample of cognitively normal older adults”, Neurology 2011; 77:951-8.) […]

[1] = tested on: meningioma tissue sections; assay: Fluorescent tissue staining of meningioma sections; type: binding, human; details: for fluorescent staining of meningioma tissue: 100 nM stain, 5 μm sections, fluorescent microscopy
Source text: The Department of Pathology, Mayo Clinic Rochester Tumor Tissue Registry, contains tumor samples procured by autopsy and surgery. Meningiomas, brain metastases and other tumors were identified by searching CoPath, a Mayo Clinic electronic pathology database of tumors collected since 1982. Tumor type was confirmed by viewing H&E stained slides under a light microscope.
Fresh cut 5 μm thick sections were used. Each staining run included normal brain and Alzheimer diseased brain as controls. Fluorescent tissue staining and microscopy was performed similar to methods previously described at Ikonomovic M D, Klunk W E, Abrahamson E E, et al., “Post-mortem correlates of in vivo PiB-PET amyloid imaging in a typical case of Alzheimer's disease”, Brain: A Journal Of Neurology 2008; 131:1630-45. Meningioma and other brain tumor sections were stained with 100 nM CN-PiB, 100 nM of unlabeled PiB or with saline alone as a negative control. The staining protocol was as follows: deparaffinization and rehydration, 0.25% KMnO4 incubation, water wash, 1% K2S2O5/1% Oxalic Acid incubation, water wash, PBS wash, 6-CN-PiB/PiB/saline incubation, PBS wash, NaCl, K2HPO4, and KH2PO4 incubation, water wash, mount coverslip, and storage at 4° C. in the dark until imaged. Slides were imaged within five days of staining. Immunohistochemical staining of meningiomas for beta amyloid protein was performed using NCL-B-Amyloid mouse anti-human antibody per standard clinical protocol.
Tissue stain images were obtained on a Zeiss 510 confocal microscope with excitation at 405 nm, a 420-480 bandpass filter, and the laser set at 15% power.
Images were obtained with a C-Apochromat 40×/1.2 W lens.

[2] = 16 high-likelihood meningiomas in 15 patients, C11-PiB PET/CT

Question: Which results are given for `[11CH3]Nc1ccc(-c2nc3ccc(O)cc3s2)cc1` [PiB, [N-Methyl-^11C]2-(4′-methylaminophenyl)-6-hydroxybenzothiazole]?
Answer: SUVmax (meningiomas; 2.0 cm thick meningioma, focused irradiation 1 month prior to PiB PET/CT): 3.6; SUVmax range (meningiomas; [2]): 1.4-3.6; average SUVmax (by body weight) (meningiomas; [2]): 2.2; uptake on PET/CT (meningiomas; Example 1, one of seven presumed meningiomas, small size (~4 mm thick)): some uptake; uptake on PET/CT (meningiomas; Example 1, six of seven presumed meningiomas, 241 patient database): intense uptake; uptake on PET/CT (meningiomas; Example 2, recurrent orbital meningioma and falx meningioma in one patient): avid uptake; uptake on PET/CT (meningiomas; Example 2, total of ten presumed meningiomas): show uptake; repeat imaging result (meningiomas; Example 3, one patient imaged two times, many months in between): the same positive results; uptake on PET/CT (meningiomas; Example 3, thirteen out of thirteen presumed meningiomas >5 mm within field of view): positive uptake; uptake on PET/CT (meningiomas; Example 3, three non-diagnostic presumed meningiomas): some positive uptake; repeat imaging SUVmax of meningioma (meningiomas; Example 4, two patients imaged with PiB PET/CT more than once): stable or increasing SUVmax; activity at the meningioma on PET/CT (meningiomas; FIG. 1, Patient #1, right tentorium cerebelli mass): intense activity; activity at the meningioma on PET/CT (meningiomas; FIG. 2, Patient #4, tuberculum sellae and planum sphenoidale mass): intense activity; SUVmax (meningiomas; FIG. 3, 2.6 cm thick meningioma of the right tentorium): 2.8; SUVmax (meningiomas; FIG. 4 meningioma, Panels A-C): 2.8; SUVmax (meningiomas; FIG. 4 meningioma, panels G-I): 3.6; SUVmax (meningiomas; FIG. 5 Panel A, sella/supracellar region meningioma): 1.7; SUVmax (meningiomas; FIG. 5 Panel C, internal auditory canal meningioma): 1.9; SUVmax (meningiomas; FIG. 5 Panel E, lateral ventricle meningioma): 2.1; SUVmax (meningiomas; FIG. 5 Panel G, post-surgical meningioma recurrence): 1.5; PiB PET/CT result (meningiomas; all 16 meningiomas identified by strict imaging criteria): PiB activity greater than normal adjacent tissues; also recorded: clearly diagnostically positive; amount of harmful radiation to the patient (meningiomas; injection and PET/CT imaging): within acceptable limits for diagnostic purposes; fluorescent staining of meningioma tissue [1]: stained brightly positive; also recorded: unique staining pattern; fluorescent staining of meningioma tissue ([1]; listed as Formula (V)): accumulate; location of staining within meningioma cells ([1]; tissue sections): within the nucleus of the cells of the meningiomas
